# Experimental data published in PubChem BioAssay (NCI).
#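 Five concentrations, 48 hours, 96-well plates. TGI is the concentration that stops growth completely.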 Where a SMILES comes first, the peptide text is derived from it. The star is where a group is joined. Boc = CC(C)(C)OC(=O)*; OBn = c1ccc(CO*)cc1
# Legend:
# Assay in all cases: growth of human tumour cells (NCI), 48 h
# 786-0 renal = test system: 786-0 renal
# A549 NSCLC = test system: A549 NSCLC
# CCRF-CEM leukemia = test system: CCRF-CEM leukemia
# EKVX NSCLC = test system: EKVX NSCLC
# HOP-62 NSCLC = test system: HOP-62 NSCLC
# HOP-92 NSCLC = test system: HOP-92 NSCLC
# KM12 colon = test system: KM12 colon
# MOLT-4 leukemia = test system: MOLT-4 leukemia
# NCI-H460 lung = test system: NCI-H460 lung
# OVCAR-8 ovarian = test system: OVCAR-8 ovarian
# RPMI-8226 leukemia = test system: RPMI-8226 leukemia
# RXF 393 renal = test system: RXF 393 renal
# SF-539 CNS = test system: SF-539 CNS
# SK-MEL-2 melanoma = test system: SK-MEL-2 melanoma
# SNB-75 CNS = test system: SNB-75 CNS
# TK-10 renal = test system: TK-10 renal
# UACC-62 melanoma = test system: UACC-62 melanoma
# UO-31 renal = test system: UO-31 renal
Structure (SMILES),TGI (786-0 renal) [µM],TGI (A549 NSCLC) [µM],TGI (CCRF-CEM leukemia) [µM],TGI (EKVX NSCLC) [µM],TGI (HOP-62 NSCLC) [µM],TGI (HOP-92 NSCLC) [µM],TGI (KM12 colon) [µM],TGI (MOLT-4 leukemia) [µM],TGI (NCI-H460 lung) [µM],TGI (OVCAR-8 ovarian) [µM],TGI (RPMI-8226 leukemia) [µM],TGI (RXF 393 renal) [µM],TGI (SF-539 CNS) [µM],TGI (SK-MEL-2 melanoma) [µM],TGI (SNB-75 CNS) [µM],TGI (TK-10 renal) [µM],TGI (UACC-62 melanoma) [µM],TGI (UO-31 renal) [µM]
Cc1ccc(S(=O)(=O)n2c3c(c4ccccc42)CCN2CCC(Br)C[C@@H]32)cc1 (stereo not given in full),30.2,31.4,35.2,38.1,28.5,32.4,21.1,25.8,30.1,25.1,24.4,26.1,31.5,31.7,25.4,29.4,25.3,24.2
COc1cc(Oc2nc3c(N)cc(C(F)(F)F)cc3nc2-c2ccccc2)cc(OC)c1OC,> 41.1,> 100,> 31.6,> 100,> 46.7,> 65.4,> 100,> 100,> 100,> 46.3,> 100,52,14.3,21,26,> 100,15.9,> 100
c1ccc2cc(CNCCOCCOCCNCc3ccc4ccccc4c3)ccc2c1,2.97,3.46,4.46,6.13,4.01,3.14,3.16,4.49,3.24,3.77,4.31,3.52,3.69,3.65,4.12,3.04,3.54,
CCOc1cc2c(cc1OC(C)=O)C(=O)CC[C@H]1C3CC[C@H](OC(C)=O)[C@@]3(C)CC[C@H]21 (stereo not given in full),> 100,> 100,> 100,> 100,> 100,> 100,> 100,> 100,> 100,> 100,> 100,> 100,> 100,> 100,> 100,> 100,> 100,> 100
O=C1/C(=C/c2ccccc2)CCC/C1=C\c1ccc(O)c(CN2CCCCC2)c1,3.4,36.4,> 100,18.1,32,15.4,4.98,8.21,16.5,9.54,> 100,26.7,8.95,29.2,17.1,31,10.5,19.7
Cc1ccc(S(=O)(=O)Nn2c(S)c(C#N)c(-c3ccc([N+](=O)[O-])cc3)c(C#N)c2=O)cc1,52.2,> 100,52.6,> 100,> 100,> 100,> 100,47.7,> 100,> 100,37.8,> 100,35.4,80.1,> 100,> 100,98.2,
NC(=O)NC(=O)c1cccc(NC(=O)CF)c1,> 100,> 100,> 100,> 100,> 100,> 100,> 100,> 100,> 100,> 100,> 100,> 100,> 100,> 100,> 100,> 100,> 100,80.6
CCN(CC)C(=S)N=Nc1c(O)[nH]c2ccccc12,11.4,11.9,5.75,11.5,12.6,8.52,10.5,2.93,3.08,13,4.07,7.15,2.4,23.8,11.2,5.07,6.38,
CC(NC(=O)C(Cc1ccccc1)NC(=O)C(Cc1ccccc1)NC(=O)OC(C)(C)C)C(=O)OCc1ccccc1 (stereo not drawn) (Boc-Phe-Phe-Ala-OBn; configuration not given here),> 100,> 100,> 100,> 100,> 100,81.2,> 100,> 100,> 100,> 100,> 100,> 100,> 100,> 100,> 100,> 100,> 100,> 100
O=C1/C(=C/c2c(Cl)[nH]c3ccccc23)c2ccccc2N1c1ccccc1,25.4,> 100,31.9,27.2,26.1,31.8,19.7,31.8,14.4,20.4,22.3,31.1,7.44,9.57,37.8,39.9,21.1,37.1
C=CCNC(=O)NCCCC(NC(C)=O)C(=O)NCc1ccccc1 (stereo not given),> 100,> 100,> 100,> 100,> 100,> 100,> 100,> 100,> 100,> 100,> 100,> 100,> 100,> 100,> 100,> 100,> 100,> 100
